From patent US12624008B2, “4-((6-oxopyrimidin-1(6H)-yl)methyl)benzoic acid as an inducer of Z A1AT secretion for treating AATD” (CENTESSA PHARMACEUTICALS (UK) LIMITED, priority 2020, dated 2026)

System: Z A1AT
Assay: Z A1AT cell secretion assay using HEK-Z cells (ELISA of supernatant)
Assay type: cell-based, human
Details: HEK-Z cells, 10, 33, 100 and 333 nM, 48 h, FIG. 1 y-axis in ng/ml
Description: HEK-Z cells, a human embryonic kidney cell line stably transfected with the human Z AAT gene, were plated into 96 well plates (3.0×10^5 cells/ml with 200 μl of media/well) overnight at 37° C. in a humidified atmosphere containing 5% CO2. Following incubation cells were washed with 200 μl serum-free media three times and media was replaced with treatments in quadruplicate using vehicle, 10 μM suberanilohydroxamic acid (SAHA) or 4-((6-oxopyrimidin-1(6H)-yl)methyl)benzoic acid (at concentrations of 10, 33, 100 and 333 nM) for 48 h in a 37° C. incubator in a final volume of 200 μl. At the end of the incubation step the supernatants were removed from the wells, centrifuged at 1000×g at 4° C. for 10 min and were assayed for Z A1AT levels by ELISA (Human Serpin A1/α1-antitrypsin duo set ELISA, R&D Systems, DY1268) per manufacturer's instructions.
Briefly, a 96 well plate was coated with human A1AT capture antibody overnight at room temperature (1:180 dilution from stock, 100 μl final volume/well). […] After which, 50 μl stop solution (2M H2SO4) was added and optical density (OD) of each well was read at 450 nm with 570 nm blank subtracted from each well using a microplate reader. A 4 parameter logistic curve was constructed using GraphPad Prism 8 and Z A1AT concentrations were determined in each sample by interpolation from a standard curve and multiplying by the appropriate dilution factor.

With `O=C(O)c1ccc(Cn2cnccc2=O)cc1` [4-((6-oxopyrimidin-1(6H)-yl)methyl)benzoic acid] the “secretion of Z A1AT (concentration of Z A1AT in the cell supernatant)” value was “increased in a dose dependent manner”.
